Test results: patent publication US20110306554A1, “PEPTIDE CAPABLE OF BINDING TO IMMUNOGLOBULIN” (priority 2009, published 2011)
“Also recorded” adds a separate entry of the source. Non-standard residues stand in square brackets, D forms with d. No end group written: not given here.

How the values were obtained:
[1] = system: Monoclonal antibody cocktail-induced arthritis mice; assay: Arthritis suppressing effects on arthritis-induced mice, Part 4; format: in vivo; conditions: intraperitoneal 100 mg/kg once a day from day 4; methotrexate 0.1 mg/kg
Method: Monoclonal antibody cocktail-induced arthritis mice were used to examine arthritis suppressing effects of peptides which are indicated as R13 in the section (3) in Example 2 and as R19 and R21 in the section (4) in Example 2. Arthritis was caused by intravenous administration of 2 mg/mouse of an arthritis-inducing monoclonal antibody cocktail and three days later, intraperitoneal administration of 50 μg/mouse of LPS. The peptides […] days from four days after the administration of the arthritis-inducing monoclonal antibody cocktail, and arthritis suppressing effect was examined in terms of clinical score and hind-limb volume determination.
The required amount was calculated for each peptide, based on the animal weight. […]
Measurement of body weight of animals was made on days 0, 3, 6, 9, 12, and 14 during the study period, with day 0 being the day of administration of the arthritis-inducing monoclonal antibody cocktail. Observation of general condition was made on a daily basis. […]
Results of examinations were expressed by mean value±standard error and analyzed using EXSAS (Version 7.1.6, Arm Systex Co., Ltd.). […] Quantitative data, such as body weights and leg volumes, were subjected to Bartlett's test, followed by Dunnett's multiple comparison test when the variance was uniform or Steel's multiple comparison test when the variance was not uniform.

[2] = system: type III allergic (Arthus) reaction-induced rats; assay: Immune-complex disease suppression in type III allergic (Arthus) reaction-induced rats, Part 1; format: in vivo
Method: Using sixty-four 7-week-old male Slc:Wistar rats, examinations were made on peptides R1, R2, and R5, in two series of examinations, each using a different method of administration (intraperitoneal administration and tail vein administration). Acclimation was carried out by giving normal solid chow CRF-1 for a period of 9 days or longer. The back of the animals was shaved on the day prior to administration, and a mixed solution of OVA and Evans blue dye was administered into the tail vein on the day of administration. Each peptide solution was administered intraperitoneally or into the tail vein 30 minutes or 50 minutes after the administration of the mixed solution of OVA and Evans blue dye, respectively. For intracutaneous administration of an anti-OVA solution, […] was intracutaneously administered in the back of animals at a dose of 0.1 ml/site 30 minutes or 10 minutes after the administration of the tested substance in the case of intraperitoneal or intravenous administration, respectively, so as to generate a local Arthus reaction. After the reaction was allowed to be generated for 4 hours, the animals were euthanized, the blood was removed thoroughly, and then the dorsal skin was exfoliated. The Arthus reaction sites on the exfoliated skin were punched out, and the Evans blue dye was extracted from the punched skin overnight. The amount of dye leakage was quantified by measuring absorbance for the Evans blue dye with a spectrophotometer and using a calibration curve (see, H. Okamoto, Y. Iwahisa, and M. Terasawa, “Suppression of the Arthus reaction by Y-24180, a potent and specific antagonist of platelet-activating factor”, Agents Actions, 35:149-158 (1992), for experimental procedures used in Example 4).
A predetermined amount of each peptide (peptides R1, R2, and R5) was dissolved in physiological saline to make a 20 mg/ml solution. A 2 mg/ml solution was prepared by diluting the 20 mg/ml solution 10-fold with physiological saline. A 5 mg/ml solution was prepared by dissolving each peptide in a predetermined amount in physiological saline to make a prepared solution.
A mixed solution of OVA and Evans blue dye was administered into the tail vein at a dose of 2 ml/kg. Each peptide solution was administered intraperitoneally or into the tail vein 30 minutes or 50 minutes after the administration of the mixed solution of OVA and Evans blue dye, respectively. For intracutaneous administration of an anti-OVA solution, […] was intracutaneously administered in the back of animals at a dose of 0.1 mL/site 30 minutes or 10 minutes after the administration of the tested substance in the case of intraperitoneal or intravenous administration, respectively, so as to generate a local Arthus reaction. Intracutaneous administration was conducted at 2 sites for PBS and at 2 sites for the anti-OVA solution per animal. After the reaction was allowed to be generated for 4 hours, the animals were euthanized by decapitation under ether anesthesia, the blood was removed thoroughly, and then the dorsal skin was exfoliated. The Arthus reaction sites on the exfoliated skin were punched out and subjected to dye extraction.
Several cuttings were made in the skin strips that were punched out with a punch. […] The amount of dye leakage was calculated from a calibration curve of known amounts of the dye.
The mean value (mean)±standard deviation (SD) for each group was calculated with body-weight measurements and amounts of dye leakage. […]

[3] = system: Monoclonal antibody cocktail-induced arthritis mice; assay: Arthritis suppressing effects on arthritis-induced mice, Part 2; format: in vivo; conditions: 10 mg/kg intraperitoneal twice a day, 14 consecutive days from day 0
Method: Monoclonal antibody cocktail-induced arthritis mice were used to examine arthritis suppressing effects of peptides which are indicated as R1, R2, and R5 in Example 2. Arthritis was caused by intravenous administration of 2 mg/mouse of an arthritis-inducing monoclonal antibody cocktail and three days later, intraperitoneal administration of 50 μg/mouse of LPS. The peptides were administered at a dose of 10 mg/kg twice a day for a period of 14 consecutive days from the day of administration of the arthritis-inducing monoclonal antibody cocktail (day 0), and arthritis suppressing effect was examined in terms of clinical score. Experiments were carried out in a similar way to those in the section (1) in Example 3.
The required amount was calculated for each peptide, based on the animal weight. Each peptide solution was prepared to make a concentration of 1 mg/ml in a 0.5% methyl cellulose solution, and the prepared peptide solution was cold stored.
Measurement of body weight of animals was made on days 0, 3, 6, 9, 12, and 14 during the study period, with day 0 being the day of administration of the arthritis-inducing monoclonal antibody cocktail. Observation of general condition was made on a daily basis.
Mice were weighed on the day prior to start of administration and randomly assigned to groups using a grouping software, so that the average body weight values of the groups were approximately equal. To twenty 7-week-old mice, the arthritis-inducing monoclonal antibody cocktail was intravenously administered at a dose of 2 mg/mouse on day 0, and LPS was intraperitoneally administered at a dose of 50 μg/mouse on day 3.
Each peptide solution was given via intraperitoneal administration twice a day, morning and afternoon, from day 0. As a control, a 0.5% solution of methyl cellulose was intraperitoneally administered twice a day from day 0. A needle (26G; Terumo) and a syringe (1.0-ml capacity; Terumo) were used for administration. […]
Results of examinations were expressed by mean value±standard error and analyzed using EXSAS (Version 7.1.6, Arm Systex Co., Ltd.). […]

[4] = system: Cy3-labeled goat anti-mouse immunoglobulin (IgG); assay: Peptide array of C1q subunit 15-mers probed with Cy3-labeled immunoglobulin; format: binding; conditions: peptide spots on glass array, 4° C., 12 hours, background fluorescence intensity is 2.6
Excerpt: The amino acid sequences of the A, B, and C subunit chains of human C1q, are shown in SEQ ID NOs: 17 to 19, and the nucleotide sequences in SEQ ID NOs: 20 to 22. Based on each of the amino acid sequences, sequences having 15 amino acids (residues) from each subunit and shifted at intervals of three amino acids, were synthesized on a glass array as synthetic peptides (Peptide Nos. 1 to […], and 193 to 270 for the A, B, and C chains, respectively). The synthesis of each peptide was carried out at a specific location on the array, so as to prepare a peptide array which included the synthetic peptides covering the entire amino acid sequences of the subunits of C1q. The preparation of the array was outsourced to JPT Peptide Technologies GmbH.
To the peptide array was applied 330 μl of an Cy3-labeled goat anti-mouse immunoglobulin (IgG) (1 mg/ml; Zymed Laboratories) diluted 1000-fold with PBS (10 mM phosphate buffer, pH 7.0, 0.1 M NaCl), and the array was sealed and then incubated at 4° C. for 12 hours. After that, the array was washed once with methanol and then 5 times with Milli-Q water for 5 minutes each. The array slide was centrifuged and dried, and scanned with a fluorescence scanner (Agilent DNA microarray scanner; Agilent Technologies), so that fluorescence intensity was quantified at the respective peptide spots on the array using a software (Feature Extraction software; Agilent Technologies). Several spots displaying strong fluorescence intensities were detected. […] Note that in the description, the amino acids are denoted by the one-letter code known in the art.

[5] = target: Cy3-labeled goat anti-mouse immunoglobulin (IgG) (goat); assay: peptide array on glass, Cy3-labelled goat anti-mouse IgG, fluorescence scanner; background 2.6
[6] = intraperitoneal administration, 10 or 100 mg/kg
[7] = tail vein administration, 10 mg/kg

Fluorescence intensity [5]	Molecule	Fluorescence intensity [4]	other results
	dSdTGdKdFdTdSdKdVdPGdLdYdYdF ([dS][dT]G[dK][dF][dT][dS][dK][dV][dP]G[dL][dY][dY][dF]) [R21]		arthritis-suppressing effect (clinical score) compared with methotrexate [1]: arthritis-suppressing effect comparable to or greater than that of methotrexate
	PGLYYF (Immunoglobulin binding peptide) [R1]		effect of immune-complex disease suppression (dye leakage) [2, 6]: clear and satisfactory effects of immune-complex disease suppression; also recorded: suppressed; effect of immune-complex disease suppression (dye leakage) [2, 7]: clear and satisfactory effects of immune-complex disease suppression; also recorded: suppressed; arthritis suppressing effect (clinical score) [3]: Arthritis suppressing effects were observed; also recorded: arthritis was suppressed
	CKVPGLYYFVYHASH (Immunoglobulin binding peptide) [R6]	65,313	
	CKVPGLYYF (Immunoglobulin binding peptide) [R2]		effect of immune-complex disease suppression (dye leakage) [2, 6]: clear and satisfactory effects of immune-complex disease suppression; also recorded: suppressed; effect of immune-complex disease suppression (dye leakage) [2, 7]: clear and satisfactory effects of immune-complex disease suppression; also recorded: suppressed; arthritis suppressing effect (clinical score) [3]: Arthritis suppressing effects were observed; also recorded: arthritis was suppressed
	KFTCKVPGLYYFVYH (Immunoglobulin binding peptide) [compound 245]	65,311	
	FTCKVPGLYYFTYHA (Immunoglobulin binding peptide) [R4]	65,311	
	SGKFTCKVPGLYYFT (Immunoglobulin binding peptide) [R3]	65,300	
65300	SGKFTCKVPGLYYFT [peptide R3 (…)]		
65300	FTCKVPGLYYFTYHA [peptide R4 (…)]		
65300	KFTCKVPGLYYFVYH [Peptide No. 245 (…)]		
65300	STGKFTCKVPGLYYF [peptide R5 (…)]		
65300	CKVPGLYYFVYHASH [peptide R6 (…)]		
